Among the data in US11612604B2, “Methods of treating cancer with PLK4 inhibitors” (LUDWIG INSTITUTE FOR CANCER RESEARCH LTD, priority 2017, dated 2023) are IC50 values, retold here.

Molecules are shown by their SMILES. pIC50: −log10 of the molar value. Some results are limits rather than exact numbers.

The test has as its target T1, PLK4 (Homo sapiens, UniProt O00444).
T1 sequence (O00444 1-970): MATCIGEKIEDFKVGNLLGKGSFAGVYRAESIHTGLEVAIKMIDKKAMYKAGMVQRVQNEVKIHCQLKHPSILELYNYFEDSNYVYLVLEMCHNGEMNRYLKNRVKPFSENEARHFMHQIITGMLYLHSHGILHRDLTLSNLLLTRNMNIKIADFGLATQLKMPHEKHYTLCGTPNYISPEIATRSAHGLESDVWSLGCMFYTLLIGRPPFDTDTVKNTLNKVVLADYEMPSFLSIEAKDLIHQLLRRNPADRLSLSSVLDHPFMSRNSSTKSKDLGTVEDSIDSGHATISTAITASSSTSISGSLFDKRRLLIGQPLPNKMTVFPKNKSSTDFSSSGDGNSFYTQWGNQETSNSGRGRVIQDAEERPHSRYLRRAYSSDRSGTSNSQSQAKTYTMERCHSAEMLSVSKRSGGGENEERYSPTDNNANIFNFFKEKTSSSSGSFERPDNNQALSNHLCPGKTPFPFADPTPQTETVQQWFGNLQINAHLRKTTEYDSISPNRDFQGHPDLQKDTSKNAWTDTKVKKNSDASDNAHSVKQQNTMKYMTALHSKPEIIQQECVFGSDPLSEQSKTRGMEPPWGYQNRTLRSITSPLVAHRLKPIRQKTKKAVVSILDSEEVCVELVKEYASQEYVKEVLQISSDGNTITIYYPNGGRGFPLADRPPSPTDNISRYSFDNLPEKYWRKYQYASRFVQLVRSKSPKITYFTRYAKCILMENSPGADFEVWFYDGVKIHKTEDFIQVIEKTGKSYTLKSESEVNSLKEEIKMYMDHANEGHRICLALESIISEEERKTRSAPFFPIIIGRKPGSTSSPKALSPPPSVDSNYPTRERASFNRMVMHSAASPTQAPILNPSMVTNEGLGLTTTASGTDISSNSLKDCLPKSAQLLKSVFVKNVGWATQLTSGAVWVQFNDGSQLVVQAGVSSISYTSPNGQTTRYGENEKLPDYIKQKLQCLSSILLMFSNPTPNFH
As to the kind of experiment: Activity (IC50) of the Table 1 compounds as PLK4 inhibitors. It counts as biochemical. The conditions noted are these: Table 1, IC50 class.
The pIC50 is the IC50 on a negative log10 scale, so that one unit is a factor of ten. As for `Cc1cc(Nc2nc(Sc3ccc(NC(=O)C4CC4)cc3)nc(N3CCN(C)C(C)C3)c2C)n[nH]1` (stereo not drawn), the pIC50 was > 7.00. As to `Cc1cc(Nc2nc(Sc3ccc(NC(=O)C4CC4)cc3)nc(N3CCN(CCN(C)C)CC3)c2C)n[nH]1`, the pIC50 is > 7.00.

Regarding `Cc1cc(Nc2nc(Sc3ccc(NC(=O)C4CC4)cc3)nc(N(C)C)c2C)n[nH]1`, the pIC50 was > 7.00.

For `CC(=O)Nc1ccc(Sc2nc(Nc3cc(C)[nH]n3)c(C)c(N3CCCC3)n2)cc1`, the pIC50 was > 7.00. Take `CC(=O)Nc1ccc(Sc2nc(Nc3cc(C)[nH]n3)c(C)c(N3CCCCCC3)n2)cc1`: the pIC50 is > 7.00. In the case of `CC(=O)Nc1ccc(Sc2nc(Nc3cc(C)[nH]n3)c(C)c(N3CC=CCC3)n2)cc1`, the pIC50 is > 7.00. For the compound `CC(=O)Nc1ccc(Sc2nc(Nc3cc(C)[nH]n3)c(C)c(N3CC=C(F)CC3)n2)cc1`, the pIC50 was > 7.00. Consider `CC(=O)Nc1ccc(Sc2nc(Nc3cc(C)[nH]n3)c(C)c(N3CCC(C)CC3)n2)cc1`, for which the pIC50 is > 7.00.

With `CC(=O)Nc1ccc(Sc2nc(Nc3cc(C)[nH]n3)c(Cl)c(N3CCN(C)CC3)n2)cc1`, the pIC50 is > 7.00. Consider `CSc1nc(Nc2cc(C)[nH]n2)c(Cl)c(N2CCCCC2)n1`, for which the pIC50 is > 7.00. As to `Cc1cc(Nc2nc(Sc3ccccc3)nc(N3CCCCC3)c2C)n[nH]1`, the negative logarithm of the IC50 (pIC50) is > 7.00. In the case of `Cc1ccc(Sc2nc(Nc3cc(C)[nH]n3)c(C)c(N3CCCCC3)n2)cc1`, the pIC50 was > 7.00.

`Cc1cc(Nc2nc(Sc3ccc(N)cc3)nc(N3CCCCC3)c2C)n[nH]1`: the pIC50 was > 7.00.

For `CNC(=O)Nc1ccc(Sc2nc(Nc3cc(C)[nH]n3)c(C)c(N3CCCCC3)n2)cc1`, the pIC50 was > 7.00.

For `COC(=O)Nc1ccc(Sc2nc(Nc3cc(C)[nH]n3)c(C)c(N3CCCCC3)n2)cc1`, the pIC50 is > 7.00. `CC(=O)Nc1ccc(Sc2nc(Nc3cc(C)[nH]n3)c(C)c(N3CCC(F)(F)CC3)n2)cc1`: the pIC50 is > 7.00.

As to `CC(=O)Nc1ccc(Sc2nc(Nc3cc(C)[nH]n3)c(C)c(N3CCC(F)CC3)n2)cc1`, the pIC50 is > 7.00. Take `COc1c(Nc2cc(C)[nH]n2)nc(Sc2ccc(S(=O)(=O)Cc3ccccc3)cc2)nc1N1CCC(CCN2CCN(C)CC2)CC1`: the pIC50 was > 7.00.

Turning to `COc1c(Nc2cc(C)[nH]n2)nc(Sc2ccc(S(=O)(=O)Cc3ccccc3)cc2)nc1N1CCN(CCN2CCCCCC2)CC1`, the pIC50 was > 7.00.

For the compound `COc1c(Nc2cc(C)[nH]n2)nc(Sc2ccc(NC(C)=O)cc2)nc1N1CCN(C2CCN(C)CC2)CC1`, the pIC50 was > 7.00.

`COc1c(Nc2cc(C)[nH]n2)nc(Sc2ccc(NC(C)=O)cc2)nc1N1CCN(C)CC1`: the pIC50 was > 7.00. `CC(=O)Nc1ccc(Sc2nc(Nc3cc(C)[nH]n3)c(Cl)c(N3CCCCC3)n2)cc1`: the pIC50 was > 7.00.

Take `CNc1ccc(Sc2nc(Nc3cc(C)[nH]n3)c(C)c(N3CCCCC3)n2)cc1`: the pIC50 is > 7.00. Then `Cc1cc(Nc2nc(Sc3ccc(N(C)C)cc3)nc(N3CCCCC3)c2C)n[nH]1`, with > 7.00; and `CC(=O)Nc1ccc(Sc2nc(Nc3cc(C)[nH]n3)cc(N3CCCCC3)n2)cc1`, with > 7.00. On to `COc1c(Nc2cc(C)[nH]n2)nc(Sc2ccc(NC(C)=O)cc2)nc1N1CCNCC1`, for which the pIC50 was > 7.00. In the case of `CCN(CC)c1nc(Sc2ccc(NC(C)=O)cc2)nc(Nc2cc(C)[nH]n2)c1OC`, the pIC50 was > 7.00.

Regarding `CCN(C)c1nc(Sc2ccc(NC(C)=O)cc2)nc(Nc2cc(C)[nH]n2)c1OC`, the pIC50 is > 7.00. With `COc1c(Nc2cc(C)[nH]n2)nc(Sc2ccc(NC(C)=O)cc2)nc1N(C)C`, the pIC50 is > 7.00. `COc1c(Nc2cc(C)[nH]n2)nc(Sc2ccc(NC(C)=O)cc2)nc1N1CCOCC1`: the pIC50 was > 7.00.

Take `COc1c(Nc2cc(C)[nH]n2)nc(Sc2ccc(NC(C)=O)cc2)nc1N1CCN(C(C)=O)CC1`: the pIC50 is > 7.00. Regarding `COCCN1CCN(c2nc(Sc3ccc(NC(C)=O)cc3)nc(Nc3cc(C)[nH]n3)c2OC)CC1`, the pIC50 was > 7.00.

Take `COc1c(Nc2cc(C)[nH]n2)nc(Sc2ccc(NC(C)=O)cc2)nc1N1CCCC1`: the pIC50 is > 7.00.
